Activity calls are given as the source filed them. No cut-off for these calls is given here.
What was measured:
U-87 MG [1] = assay: Induction of apoptosis in human U87MG cells assessed as live cells by measuring phosphatidylserine externalisation at 10 uM after 72 hrs by AnnexinV/FITC staining-based flow cytometry (reference value: 87.05%); assay type: functional, U-87MG ATCC
[2] = molecular target: MAP kinase-activated protein kinase 2 (Homo sapiens) (UniProt P49137); assay: Inhibition of His-tagged full-length recombinant human MAPKAPK2 expressed in Escherichia coli at 100 nM by Z-lyte assay
[3] = molecular target: Mitogen-activated protein kinase 14 (Homo sapiens) (UniProt Q16539); assay: Inhibition of GST-tagged full-length human MAPK14 (direct) expressed in Escherichia coli at 100 nM by Z-lyte assay
[4] = (§1) Antiproliferative activity against human GSC cells after 7 days by MTS assay; assay type: functional, cell-based; details: 168 h
GSC = assay: as §1; assay type: functional, cell-based
[5] = molecular target: T1, 3-phosphoinositide-dependent protein kinase 1 (Homo sapiens) (UniProt O15530); assay: Inhibition of PDK1 in human U87MG cells assessed as reduction in AKT phosphorylation at Thr308 residue at 10 uM measured at 120 mins by ELISA relative to control; assay type: cell-based; details: U-87MG ATCC
T1 sequence (whole entry): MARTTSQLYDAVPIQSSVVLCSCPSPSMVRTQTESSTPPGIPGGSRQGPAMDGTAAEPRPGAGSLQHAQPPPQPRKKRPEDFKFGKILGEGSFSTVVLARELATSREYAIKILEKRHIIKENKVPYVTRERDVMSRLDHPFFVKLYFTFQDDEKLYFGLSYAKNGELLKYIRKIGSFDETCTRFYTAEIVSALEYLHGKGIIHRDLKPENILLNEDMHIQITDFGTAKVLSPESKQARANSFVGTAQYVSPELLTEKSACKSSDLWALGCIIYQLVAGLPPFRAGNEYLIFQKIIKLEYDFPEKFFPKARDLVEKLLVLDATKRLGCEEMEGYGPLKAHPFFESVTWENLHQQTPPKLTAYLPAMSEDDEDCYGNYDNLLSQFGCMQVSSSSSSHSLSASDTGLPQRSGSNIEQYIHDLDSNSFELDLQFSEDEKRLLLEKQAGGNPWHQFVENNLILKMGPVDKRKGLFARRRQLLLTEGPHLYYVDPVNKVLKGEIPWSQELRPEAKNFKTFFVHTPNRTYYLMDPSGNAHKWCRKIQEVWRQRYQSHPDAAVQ

[6] = molecular target: Tyrosine-protein kinase Lck (Homo sapiens) (UniProt P06239); assay: Inhibition of His-tagged full-length human LCK expressed in baculovirus system at 100 nM by Z-lyte assay
[7] = molecular target: Mitogen-activated protein kinase 1 (Homo sapiens) (UniProt P28482); assay: Inhibition of GST-tagged full-length human MAPK1 expressed in Escherichia coli at 100 nM by Z-lyte assay
[8] = molecular target: T1, 3-phosphoinositide-dependent protein kinase 1 (Homo sapiens); assay: Inhibition of PDK1 (unknown origin) at 10 uM by FRET-based Z-lyte assay
U-87 MG [9] = assay: Induction of apoptosis in human U87MG cells assessed as early apoptotic cells by measuring phosphatidylserine externalisation at 10 uM after 72 hrs by AnnexinV/FITC staining-based flow cytometry (reference value: 6.39%); assay type: functional, U-87MG ATCC
[10] = molecular target: Protein kinase C zeta type (Homo sapiens) (UniProt Q05513); assay: Inhibition of full-length recombinant human PRKCZ expressed in baculovirus system at 100 nM by Z-lyte assay
[11] = molecular target: CDK2/Cyclin A2 (Homo sapiens) (UniProt P24941+P20248); assay: Inhibition of GST-tagged human CDK2/Cyclin A expressed in baculovirus system at 100 nM by Z-lyte assay
U-87MG ATCC = assay: Inhibition of AKT phosphorylation at Thr308 residue in human U87MG cells at 10 uM by ELISA relative to control; assay type: cell-based
[12] = molecular target: Protein kinase C alpha type (Homo sapiens) (UniProt P17252); assay: Inhibition of full-length human PRKCA expressed in baculovirus system at 100 nM by Z-lyte assay
[13] = Induction of apoptosis in human GSC cells assessed as dead cells by measuring phosphatidylserine externalisation at 10 uM after 7 days in presence of 7-amino-actinomysin by AnnexinV/FITC staining-based flow cytometry (reference value: 1.68%); assay type: functional
[14] = molecular target: Proto-oncogene tyrosine-protein kinase Src (Homo sapiens) (UniProt P12931); assay: Inhibition of His-tagged full-length recombinant human SRC expressed in baculovirus system at 100 nM by Z-lyte assay
[15] = molecular target: Dual specificity mitogen-activated protein kinase kinase 2 (Homo sapiens) (UniProt P36507); assay: Inhibition of His-tagged full-length recombinant human MAP2K2 expressed in baculovirus system at 100 nM by Z-lyte assay
[16] = molecular target: Mitogen-activated protein kinase 8 (Homo sapiens) (UniProt P45983); assay: Inhibition of His-tagged full-length human MAPK8 expressed in baculovirus system at 100 nM by Z-lyte assay
[17] = molecular target: Protein kinase C delta type (Homo sapiens) (UniProt Q05655); assay: Inhibition of full-length recombinant human PRKCD expressed in baculovirus system at 100 nM by Z-lyte assay
[18] = molecular target: Serine/threonine-protein kinase Chk2 (Homo sapiens) (UniProt O96017); assay: Inhibition of His-tagged full-length human CHEK2 expressed in baculovirus system at 100 nM by Z-lyte assay
[19] = molecular target: Tyrosine-protein kinase ITK/TSK (Homo sapiens) (UniProt Q08881); assay: Inhibition of cytosolic GST-tagged full-length recombinant human ITK expressed in baculovirus system at 100 nM by Z-lyte assay
[20] = molecular target: T1, 3-phosphoinositide-dependent protein kinase 1 (Homo sapiens); assay: Inhibition of PDK1-mediated cell migration in human U87MG cells at 10 uM […] measured at 6 to 24 hrs by scratch wound assay; assay type: cell-based; details: U-87MG ATCC
[21] = molecular target: Glycogen synthase kinase-3 beta (Homo sapiens) (UniProt P49841); assay: Inhibition of His-tagged full-length recombinant human GSK3 beta expressed in baculovirus system at 100 nM by Z-lyte assay
[22] = Induction of apoptosis in human GSC cells assessed as late apoptotic cells by measuring phosphatidylserine externalisation at 10 uM after 7 days in presence of 7-amino-actinomysin by AnnexinV/FITC staining-based flow cytometry (reference value: 4.14%); assay type: functional
[23] = molecular target: RAC-gamma serine/threonine-protein kinase (Homo sapiens) (UniProt Q9Y243); assay: Inhibition of His-tagged full-length human AKT3 expressed in baculovirus system at 100 nM by Z-lyte assay
[24] = molecular target: T1, 3-phosphoinositide-dependent protein kinase 1 (Homo sapiens); assay: Inhibition of PDK1 in human GSC cells assessed as reduction in AKT phosphorylation at Thr308 residue at 10 uM by ELISA relative to control; assay type: cell-based; details: TDE = time-dependent effect
[25] = molecular target: Interleukin-1 receptor-associated kinase 4 (Homo sapiens) (UniProt Q9NWZ3); assay: Inhibition of His-tagged full-length human IRAK4 expressed in baculovirus system at 100 nM by Z-lyte assay
[26] = molecular target: Serine/threonine-protein kinase MARK1 (Homo sapiens) (UniProt Q9P0L2); assay: Inhibition of GST-tagged full-length recombinant human MARK1 expressed in baculovirus system at 100 nM by Z-lyte assay
[27] = molecular target: Glycogen synthase kinase-3 alpha (Homo sapiens) (UniProt P49840); assay: Inhibition of GSK3 alpha (unknown origin) at 100 nM by Z-lyte assay
Sequence of Glycogen synthase kinase-3 alpha (Homo sapiens) (P49840 2-483 limits assumed): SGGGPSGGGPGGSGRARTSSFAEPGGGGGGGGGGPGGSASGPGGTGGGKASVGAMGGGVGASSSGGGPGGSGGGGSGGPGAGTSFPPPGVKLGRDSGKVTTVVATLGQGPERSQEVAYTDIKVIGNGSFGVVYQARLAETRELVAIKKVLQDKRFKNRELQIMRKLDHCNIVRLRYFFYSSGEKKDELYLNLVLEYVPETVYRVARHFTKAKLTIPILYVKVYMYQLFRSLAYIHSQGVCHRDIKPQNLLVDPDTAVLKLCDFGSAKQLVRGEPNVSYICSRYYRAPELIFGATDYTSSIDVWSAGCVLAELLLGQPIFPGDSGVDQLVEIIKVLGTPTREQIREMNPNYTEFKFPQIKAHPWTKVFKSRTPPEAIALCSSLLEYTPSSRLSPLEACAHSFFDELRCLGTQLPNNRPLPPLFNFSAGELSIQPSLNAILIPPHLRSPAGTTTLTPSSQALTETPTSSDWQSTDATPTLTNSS

Sequence of Proto-oncogene tyrosine-protein kinase Src (Homo sapiens) (P12931 2-536 limits assumed): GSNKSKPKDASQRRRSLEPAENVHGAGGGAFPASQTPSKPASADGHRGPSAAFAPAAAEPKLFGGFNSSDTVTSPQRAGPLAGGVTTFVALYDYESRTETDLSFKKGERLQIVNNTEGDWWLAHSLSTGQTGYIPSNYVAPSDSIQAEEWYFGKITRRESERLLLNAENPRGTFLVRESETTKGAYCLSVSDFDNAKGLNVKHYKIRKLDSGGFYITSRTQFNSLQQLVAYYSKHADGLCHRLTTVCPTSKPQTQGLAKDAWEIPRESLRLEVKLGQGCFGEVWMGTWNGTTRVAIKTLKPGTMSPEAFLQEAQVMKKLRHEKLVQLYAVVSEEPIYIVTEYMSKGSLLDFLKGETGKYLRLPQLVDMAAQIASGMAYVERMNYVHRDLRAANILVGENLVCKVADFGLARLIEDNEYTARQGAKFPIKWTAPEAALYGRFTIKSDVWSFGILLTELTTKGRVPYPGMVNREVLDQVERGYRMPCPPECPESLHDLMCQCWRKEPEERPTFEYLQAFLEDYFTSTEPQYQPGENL
Sequence of Dual specificity mitogen-activated protein kinase kinase 2 (Homo sapiens) (P36507 whole entry): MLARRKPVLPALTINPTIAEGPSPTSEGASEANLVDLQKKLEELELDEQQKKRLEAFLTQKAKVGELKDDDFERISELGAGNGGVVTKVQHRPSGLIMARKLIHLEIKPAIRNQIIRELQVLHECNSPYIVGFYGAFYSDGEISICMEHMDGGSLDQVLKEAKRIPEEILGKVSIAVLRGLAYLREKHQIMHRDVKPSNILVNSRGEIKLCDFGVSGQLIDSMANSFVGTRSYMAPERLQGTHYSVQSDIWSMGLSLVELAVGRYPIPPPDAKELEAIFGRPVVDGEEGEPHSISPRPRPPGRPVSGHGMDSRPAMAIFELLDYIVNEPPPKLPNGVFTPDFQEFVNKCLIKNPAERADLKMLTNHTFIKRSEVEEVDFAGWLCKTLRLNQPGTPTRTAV
Sequence of Serine/threonine-protein kinase MARK1 (Homo sapiens) (Q9P0L2 whole entry, looked up): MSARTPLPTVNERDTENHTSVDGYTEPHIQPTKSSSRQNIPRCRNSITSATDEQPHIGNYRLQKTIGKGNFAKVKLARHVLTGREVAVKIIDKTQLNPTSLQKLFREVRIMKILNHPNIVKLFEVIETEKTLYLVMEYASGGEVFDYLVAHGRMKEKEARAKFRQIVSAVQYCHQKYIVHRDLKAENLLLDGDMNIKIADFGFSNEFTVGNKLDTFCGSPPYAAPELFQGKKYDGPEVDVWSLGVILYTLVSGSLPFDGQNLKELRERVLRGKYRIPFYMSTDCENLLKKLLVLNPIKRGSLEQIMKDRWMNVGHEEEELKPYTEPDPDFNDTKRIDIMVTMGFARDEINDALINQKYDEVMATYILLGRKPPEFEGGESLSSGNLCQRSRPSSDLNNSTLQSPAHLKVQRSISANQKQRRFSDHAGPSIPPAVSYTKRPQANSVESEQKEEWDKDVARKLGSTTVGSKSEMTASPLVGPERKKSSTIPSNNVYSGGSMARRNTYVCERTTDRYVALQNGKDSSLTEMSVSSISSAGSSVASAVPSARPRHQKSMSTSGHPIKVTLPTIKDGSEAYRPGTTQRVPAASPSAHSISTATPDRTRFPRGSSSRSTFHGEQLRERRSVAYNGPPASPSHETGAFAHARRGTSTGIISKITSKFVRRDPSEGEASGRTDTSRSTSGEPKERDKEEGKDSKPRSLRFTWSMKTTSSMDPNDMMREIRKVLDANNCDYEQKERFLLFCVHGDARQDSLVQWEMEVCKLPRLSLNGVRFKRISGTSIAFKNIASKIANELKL
Sequence of Mitogen-activated protein kinase 14 (Homo sapiens) (Q16539 whole entry): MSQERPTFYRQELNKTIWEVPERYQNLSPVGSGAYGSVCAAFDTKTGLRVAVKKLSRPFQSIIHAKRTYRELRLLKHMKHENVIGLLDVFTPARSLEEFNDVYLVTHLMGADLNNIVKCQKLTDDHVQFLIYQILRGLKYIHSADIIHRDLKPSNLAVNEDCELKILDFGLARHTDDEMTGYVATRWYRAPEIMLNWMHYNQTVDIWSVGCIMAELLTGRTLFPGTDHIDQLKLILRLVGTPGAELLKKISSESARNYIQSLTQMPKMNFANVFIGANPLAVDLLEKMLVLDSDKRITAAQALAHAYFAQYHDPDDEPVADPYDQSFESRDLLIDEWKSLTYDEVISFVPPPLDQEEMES
Sequence of Tyrosine-protein kinase ITK/TSK (Homo sapiens) (Q08881 whole entry): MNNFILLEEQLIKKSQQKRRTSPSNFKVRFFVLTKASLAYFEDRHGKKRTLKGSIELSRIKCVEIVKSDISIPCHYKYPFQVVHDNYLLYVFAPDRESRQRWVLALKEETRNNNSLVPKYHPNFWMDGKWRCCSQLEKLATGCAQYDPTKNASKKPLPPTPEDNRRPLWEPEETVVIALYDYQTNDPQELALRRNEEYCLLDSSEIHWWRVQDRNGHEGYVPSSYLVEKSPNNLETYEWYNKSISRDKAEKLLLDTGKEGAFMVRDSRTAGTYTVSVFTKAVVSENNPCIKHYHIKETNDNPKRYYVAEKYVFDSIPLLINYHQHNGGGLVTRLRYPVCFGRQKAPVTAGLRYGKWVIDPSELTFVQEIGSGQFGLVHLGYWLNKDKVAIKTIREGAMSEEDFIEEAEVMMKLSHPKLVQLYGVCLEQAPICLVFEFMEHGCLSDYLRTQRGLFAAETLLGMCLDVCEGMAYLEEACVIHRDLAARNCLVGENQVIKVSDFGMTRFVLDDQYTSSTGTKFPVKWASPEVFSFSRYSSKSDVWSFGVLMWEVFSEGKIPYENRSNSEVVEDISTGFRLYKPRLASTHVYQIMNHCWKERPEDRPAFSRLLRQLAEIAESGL
Sequence of Interleukin-1 receptor-associated kinase 4 (Homo sapiens) (Q9NWZ3 whole entry): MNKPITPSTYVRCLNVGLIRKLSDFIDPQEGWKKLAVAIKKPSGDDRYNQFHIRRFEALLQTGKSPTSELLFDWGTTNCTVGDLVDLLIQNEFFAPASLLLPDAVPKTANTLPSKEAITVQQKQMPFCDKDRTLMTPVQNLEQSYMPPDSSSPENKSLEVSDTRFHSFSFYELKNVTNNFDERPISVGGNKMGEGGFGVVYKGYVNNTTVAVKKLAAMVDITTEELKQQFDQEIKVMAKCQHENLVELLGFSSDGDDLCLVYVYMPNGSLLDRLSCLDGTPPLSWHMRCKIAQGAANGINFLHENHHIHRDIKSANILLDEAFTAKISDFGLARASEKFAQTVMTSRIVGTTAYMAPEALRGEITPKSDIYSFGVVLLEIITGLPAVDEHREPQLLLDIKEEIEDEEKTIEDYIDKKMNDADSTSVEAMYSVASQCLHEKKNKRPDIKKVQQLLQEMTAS
Sequence of RAC-gamma serine/threonine-protein kinase (Homo sapiens) (Q9Y243 whole entry): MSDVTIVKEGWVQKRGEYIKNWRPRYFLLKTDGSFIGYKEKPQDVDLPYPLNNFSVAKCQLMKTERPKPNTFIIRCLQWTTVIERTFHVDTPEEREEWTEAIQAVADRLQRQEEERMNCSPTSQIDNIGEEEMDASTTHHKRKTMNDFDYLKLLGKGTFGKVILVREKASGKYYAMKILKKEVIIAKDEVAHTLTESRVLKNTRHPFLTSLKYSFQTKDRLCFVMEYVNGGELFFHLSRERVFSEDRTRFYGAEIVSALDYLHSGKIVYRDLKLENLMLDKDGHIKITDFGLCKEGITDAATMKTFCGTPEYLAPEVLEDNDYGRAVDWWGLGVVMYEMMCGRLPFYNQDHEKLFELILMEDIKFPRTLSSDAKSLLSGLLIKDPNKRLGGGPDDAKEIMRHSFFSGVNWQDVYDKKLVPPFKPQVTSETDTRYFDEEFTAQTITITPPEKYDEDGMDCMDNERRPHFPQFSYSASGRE
Sequence of Protein kinase C zeta type (Homo sapiens) (Q05513 whole entry): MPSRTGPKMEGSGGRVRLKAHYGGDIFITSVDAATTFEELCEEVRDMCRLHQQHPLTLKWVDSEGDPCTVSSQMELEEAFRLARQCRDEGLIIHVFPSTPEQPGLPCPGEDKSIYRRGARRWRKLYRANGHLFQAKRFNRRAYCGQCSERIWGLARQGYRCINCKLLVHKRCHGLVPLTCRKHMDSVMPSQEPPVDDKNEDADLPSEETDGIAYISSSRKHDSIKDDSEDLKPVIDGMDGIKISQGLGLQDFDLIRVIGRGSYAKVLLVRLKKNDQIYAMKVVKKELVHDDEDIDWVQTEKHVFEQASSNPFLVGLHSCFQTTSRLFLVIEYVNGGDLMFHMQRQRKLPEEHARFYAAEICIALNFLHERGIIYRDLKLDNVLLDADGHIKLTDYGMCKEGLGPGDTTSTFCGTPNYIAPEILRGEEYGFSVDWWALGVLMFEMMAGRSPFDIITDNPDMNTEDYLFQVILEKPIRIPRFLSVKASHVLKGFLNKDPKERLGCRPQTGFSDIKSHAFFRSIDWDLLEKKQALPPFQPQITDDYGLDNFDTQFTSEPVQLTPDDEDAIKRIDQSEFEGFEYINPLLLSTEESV

Compound `O=C(CNC(=O)c1cccn(Cc2ccc(F)c(F)c2)c1=O)Nc1ccc2c(c1)/C(=C/c1cnc[nH]1)C(=O)N2` has an Activity (U-87 MG [1]) of 76.41%, an inhibition [2] of 0% and an inhibition [3] of 3%. The IC50 [4] was 3.36 nM, the Activity (GSC) was “Dose-dependent effect” and the inhibition [5] was 19.6%. The inhibition [6] was 9%, the inhibition [7] was 6% and the inhibition [8] was 87%. It also gave an Activity (U-87 MG [9]) of 17.3%, an inhibition [10] of -3% and an inhibition [11] of 4%. The inhibition (U-87MG ATCC) was “Dose-dependent effect”, the inhibition [12] was 0% and the Activity [13] was 2.35%. For the same compound, the inhibition [14] was 7%, the inhibition [15] was 9% and the inhibition [16] was 12%. It also gave an inhibition [17] of -7%, an inhibition [18] of 4% and an inhibition [19] of 14%. For the same compound, the inhibition [20] was “Active”, the inhibition [21] was 24% and the Activity [22] was 22.7%. The inhibition [23] was 2%, the inhibition [24] was “tde” and the inhibition [25] was -6%. It also gave an inhibition [26] of 17% and an inhibition [27] of 43%.
